Values of other authors, collected in PubChem BioAssay AID1259410 (Chemical Carcinogenesis Research Information System (CCRIS), 2018).

Tested on: rodent tumor promotion studies, tumor incidence
Assay: CCRIS tumor promotion studies
Text: The CCRIS database contains chemical records with carcinogenicity, mutagenicity, tumor promotion, and tumor inhibition test results. It was developed by the National Cancer Institute (NCI). Data are derived from studies cited in primary journals, current awareness tools, NCI reports, and other sources. Test results have been reviewed by experts in carcinogenesis and mutagenesis.
CCRIS provides historical information from the years 1985 - 2011. It is no longer updated.
This is an archive assay for CCRIS tumor promotion studies.

[1] = Carcinogen: 7,12-DIMETHYLBENZ(A)ANTHRACENE, Doses [Carcinogen]: TOP, Route [Carcinogen]: DERMAL, Route [Promoter]: DERMAL, Species: MOUSE, Strain/Sex: MALE,FEMALE

Question: For `CC(O)CN(C)N=O` (stereo not drawn), which outcome (Carcinogen: 1-NITRO-1,3-DIMETHYLUREA, 13256-32-1, Doses [Carcinogen]: 10 MG/ML IN ETHYL ACETATE/CORN OIL (1:1) 1/WK FOR 2 WK, Doses [Promoter]: 0, 20 MG/L IN DRINKING WATER 5D/WK FOR 40 WK BEGINNING 1/WK POST CARCINOGEN TREATMENT (STUDY DURATION: 43 WK), Route [Carcinogen]: GAVAGE, Route [Promoter]: ORAL, Species: RAT, Strain/Sex: F344/MALE) is on record?
Answer: kidney: nephroblastoma

Question: And the outcome (Carcinogen: 1-NITROSO-1,3-DIETHYLUREA, 49540-32-1, Doses [Carcinogen]: 12 MG/ML IN ETHYL ACETATE/CORN OIL (1:1) 1/WK FOR 2 WK, Doses [Promoter]: 0, 20 MG/L IN DRINKING WATER 5 D/WK FOR 40 WK BEGINNING 1/WK POST CARCINOGEN TREATMENT (STUDY DURATION: 43 WK), Route [Carcinogen]: GAVAGE, Route [Promoter]: ORAL, Species: RAT, Strain/Sex: F344/MALE)?
Answer: thyroid: adenocarcinoma; lung: adenocarcinoma; kidney: nephroblastoma

Question: And the outcome (Carcinogen: NITROSOBIS(2-OXOPROPYL)AMINE, 60599-38-4, Doses [Carcinogen]: 12 MG/ML IN ETHYL ACETATE/CORN OIL (1:1) 2/WK FOR 2 WK, Doses [Promoter]: 0, 20 MG/L IN DRINKING WATER 5D/WK FOR 40 WK BEGINNING 1/WK POST CARCINOGEN TREATMENT (STUDY DURATION: 43 WK), Route [Carcinogen]: GAVAGE, Route [Promoter]: ORAL, Species: RAT, Strain/Sex: F344/MALE)?
Answer: kidney: renal cell carcinoma

Question: For `CCCCCCCCCCCC(=O)O`, which outcome [1] is on record?
Answer: integumentary system (skin)

Question: Which outcome (Carcinogen: N-BUTYL-N-(4-HYDROXYBUTYL)NITROSAMINE, 3817-11-6, Doses [Carcinogen]: 0.05% IN DRINKING WATER FOR 4 WK, Doses [Promoter]: 0, 2% IN DIET BEGINNING POST CARCINOGEN TREATMENT AND CONTINUING FOR DURATION OF STUDY (STUDY DURATION: 40 WK), Route [Carcinogen]: ORAL, Route [Promoter]: ORAL, Species: RAT, Strain/Sex: F344/MALE) does the source give for `CC[C@H](C)[C@H](N)C(=O)O` here?
Answer: bladder: carcinoma

Question: Which outcome (Carcinogen: N-nitrosodiethylamine (DEN) (55-18-5), N-methylnitrosourea (MNU) (684-93-5), 1,2-dimethylhydrazine (DMH) (540-73-8), N-b, Carcinogen: N-nitrosodiethylamine (DEN) (55-18-5), N-methylnitrosourea (MNU) (684-93-5), 1,2-dimethylhydrazine (DMH) (540-73-8), N-b, Doses [Carcinogen]: DEN (100 mg/kg at commencement), MNU (4 injections of 20 mg/kg in first 2 wks), DMH (4 injections of 40 mg/kg in second, Doses [Carcinogen]: DEN (100 mg/kg at commencement), MNU (4 injections of 20 mg/kg in first 2 wks), DMH (4 injections of 40 mg/kg in second, Doses [Promoter]: 0, 10, 300, 3000, 6000 ppm in diet immediately after completion of initiator treatment for 25 wk, Doses [Promoter]: 0, 10, 300, 3000, 6000 ppm in diet immediately after completion of initiator treatment for 25 wk, Route [Carcinogen]: Intraperitoneal (DEN and MNU), subcutaneous (DMH), oral (BBN and DHPN), Route [Carcinogen]: Intraperitoneal (DEN and MNU), subcutaneous (DMH), oral (BBN and DHPN), Route [Promoter]: Oral, Species: Rat, Strain/Sex: BrlHan:WIST Jcl (GALAS)/Male (9-12/group)) does the source give for `O=C([O-])[C@H](O)[C@@H](O)[C@H](O)[C@H](O)CO.O=C([O-])[C@H](O)[C@@H](O)[C@H](O)[C@H](O)CO.[Cu+2]` here?
Answer: liver: gst-p-positive lesions (p<0.05 at 300 and 3000 ppm and p<0.01 at 6000 ppm

Question: With `CC1=C(/C=C/C(C)=C/C=C/C(C)=C/C(=O)O)C(C)(C)CCC1` as the compound, how does the outcome (Carcinogen: 7,12-DIMETHYLBENZ[A]ANTHRACENE, 57-97-6, Doses [Carcinogen]: 50 NMOL IN 200 µL ACETONE 2/WK FOR 16 WK, Doses [Promoter]: 0, 0.5, 25 NMOL IN 200 µL ACETONE APPLIED 1 HR PRIOR TO CARCINOGEN DOSES 2/WK FOR 16 WK (STUDY DURATION: 16 WK), Doses [Promoter]: 0, 0.5, 25 NMOL IN 200 µL ACETONE APPLIED 1 HR PRIOR TO CARCINOGEN DOSES 2/WK FOR 16 WK (STUDY DURATION: 16 WK), Route [Carcinogen]: DERMAL, Route [Promoter]: DERMAL, Species: MOUSE, Strain/Sex: CD-1/FEMALE) read?
Answer: skin: tumors

Question: Which outcome [1] does the source give for `CCCCCCCC/C=C\CCCCCCCC(=O)O` here?
Answer: integumentary system (skin)

Question: For `C[C@H](N)C(=O)NCC(=O)N[C@H]1CSSC[C@@H](C(=O)O)NC(=O)[C@H](CO)NC(=O)[C@H]([C@@H](C)O)NC(=O)[C@H](Cc2ccccc2)NC(=O)[C@H]([C@@H](C)O)NC(=O)[C@H](CCCCN)NC(=O)[C@H](Cc2c[nH]c3ccccc23)NC(=O)[C@H](Cc2ccccc2)NC(=O)[C@H](Cc2ccccc2)NC(=O)[C@H](CC(N)=O)NC(=O)[C@H](CCCCN)NC1=O`, which outcome (Carcinogen: N-METHYL-N'-NITRO-N-NITROSOGUANIDINE, 70-25-7, Doses [Carcinogen]: 25 UG/ML DRINKING WATER FOR 25 WK, Doses [Promoter]: 0, 100, 200 UG/KG IN OLIVE OIL 1/2 D BEGINNING POST CARCINOGEN DOSE FOR DURATION OF STUDY (STUDY DURATION: 52 WK), Doses [Promoter]: 0, 100, 200 UG/KG IN OLIVE OIL 1/2 D BEGINNING POST CARCINOGEN DOSE FOR DURATION OF STUDY (STUDY DURATION: 52 WK), Route [Carcinogen]: ORAL, Route [Promoter]: SUBCUTANEOUS, Species: RAT, Strain/Sex: WISTAR/MALE) is on record?
Answer: glandular stomach: adenocarcinoma

Question: Which outcome (Carcinogen: N-METHYL-N'-NITRO-N-NITROSOGUANIDINE, 70-25-7, Doses [Carcinogen]: 150 MG/KG BW ONCE, Doses [Promoter]: 0, 0.8% IN DIET FOR 51 D BEGINNING 1 WK POST CARCINOGEN DOSE (STUDY DURATION: 52 WK), Route [Carcinogen]: GAVAGE, Route [Promoter]: ORAL, Species: RAT, Strain/Sex: F344/MALE) does the source give for `Oc1cc(O)c2c(c1)O[C@H](c1ccc(O)c(O)c1)[C@@H](O)C2` here?
Answer: forestomach: carcinoma; glandular stomach: adenocarcinoma

Question: With `CCCCCCCCCCCCCCCCCC(=O)O[C@@]12C[C@@H](C)[C@@]3(O)[C@@H](C=C(CO)C[C@]4(O)C(=O)C(C)=C[C@@H]34)[C@@H]1C2(C)C` as the compound, how does the outcome (Carcinogen: 7,12-DIMETHYLBENZ[A]ANTHRACENE, 57-97-6, Doses [Carcinogen]: 100 NMOL ONCE, Doses [Promoter]: 0, 100 NMOL 2/WK FOR 39 WK (STUDY DURATION: 39 WK), Route [Carcinogen]: DERMAL, Route [Promoter]: DERMAL, Species: MOUSE, Strain/Sex: NMRI) read?
Answer: skin: tumor

Question: With `CC(=O)OC/C=C(C)/C=C/C=C(C)/C=C/C1=C(C)CCCC1(C)C` as the compound, how does the outcome (Carcinogen: 3'-METHYL-4-DIMETHYLAMINOAZOBENZENE, 55-80-1, Doses [Carcinogen]: 0.06% IN DIET FOR 7 WK, Doses [Promoter]: 0, 6.25, 12.5, 25 MG 1/5 D FOR 10 WK ADMINISTERED 3 WK POST CARCINOGEN (STUDY DURATION: 25 WK), Doses [Promoter]: 0, 6.25, 12.5, 25 MG 1/5 D FOR 10 WK ADMINISTERED 3 WK POST CARCINOGEN (STUDY DURATION: 25 WK), Route [Carcinogen]: ORAL, Route [Promoter]: INTRAPERITONEAL, Species: RAT, Strain/Sex: DONRYU/MALE) read?
Answer: liver: hepatocellular carcinoma

Question: With `CC/C(=C(/CC)c1ccc(O)cc1)c1ccc(O)cc1` as the compound, how does the outcome (Carcinogen: IRRADIATION, Doses [Carcinogen]: 260 CGY GAMMA RAYS AT DAY 20 OF PREGNANCY, Doses [Promoter]: 0, 0.376 UG/D RELEASED FROM PELLET IMPLANTED AFTER NURSING DISCONTINUED, PELLET REPLACED EVERY 8 WK (STUDY DURATION: 1 Y, Route [Carcinogen]: DERMAL, Route [Promoter]: IMPLANT, Species: RAT, Strain/Sex: WISTAR/FEMALE) read?
Answer: mammary gland: tumor

Question: And the outcome (Carcinogen: Sodium arsenite, 7781-46-5, Doses [Carcinogen]: 0, 85 ppm to dams on gestational days 8-18, Doses [Promoter]: 2 ug on days 1, 2, 3, 4, and 5 of life, study duration for pups 90 wks, Route [Carcinogen]: Drinking water, days 8-18 of gestation (dams), Route [Promoter]: Subcutaneous (to offspring), Species: Mouse, Strain/Sex: C3H/HeNCr, (25 Male and female offspring/Group of dams exposed to sodium arsenite))?
Answer: males: urinary bladder: tumors, liver: tumors females: urogenital tumors

Question: What about the outcome (Carcinogen: URETHANE, 51-79-6, Doses [Carcinogen]: 500 MG/KG BW ONCE (STUDY DURATION: 19 WK), Doses [Promoter]: 5 MG/KG BW 1X/WK FOR 18 WK BEGINNING 1 WK POST LAST CARCINOGEN DOSE (STUDY DURATION: 19 WK), Route [Carcinogen]: INTRAPERITONEAL, Route [Promoter]: INTRAMUSCULAR, Species: MOUSE, Strain/Sex: KUNMING/FEMALE) of the same compound?
Answer: liver: tumor

Question: What does the source list for `C=C[C@@](C)(CCC=C(C)C)c1ccc2c3c(c[nH]c13)C[C@@H](CO)NC(=O)[C@H](C(C)C)N2C`?
Answer: outcome (Carcinogen: 7,12-DIMETHYLBENZ[A]ANTHRACENE, 57-97-6, Doses [Carcinogen]: 100 UG IN 0.1 ML ACETONE, Doses [Promoter]: 0, 3 UG IN 0.1 ML ACETONE 2/WK FOR 29 WK BEGINNING 1 WK POST CARCINOGEN DOSE (STUDY DURATION: 30 WK), Route [Carcinogen]: DERMAL, Route [Promoter]: DERMAL, Species: MOUSE): skin: tumor; outcome (Carcinogen: DIMETHYLBENZ[A]ANTHRACENE, 57-97-6, Doses [Carcinogen]: 100 UG IN 100 µL ACETONE APPLIED TO THE BACK ONCE, Doses [Promoter]: 2.5 UG IN 100 µL ACETONE APPLIED TO THE BACK FOR 30 WK BEGINNING 1 WK POST CARCINOGEN DOSE (STUDY DURATION: 31 WK), Route [Carcinogen]: DERMAL, Route [Promoter]: DERMAL, Species: MOUSE, Strain/Sex: CD-1/FEMALE): skin: papilloma

Question: With `C=C/C=C\C1C2/C=C/CC(=O)O[C@@]34C[C@@H](C)[C@]5(O)C6C=C(C)C(=O)[C@@]6(O)CC(CO)=C[C@H]5[C@@H]3[C@@]4(C)COC(=O)C2C2C(/C=C/C=C/C=C/CCC)C12` (stereo partly drawn) as the compound, how does the outcome (Carcinogen: 7,12-DIMETHYLBENZ[A]ANTHRACENE, 57-97-6, Doses [Carcinogen]: 100 UG IN O.1 ML ACETONE, Doses [Promoter]: 0, 2 UG IN 0.1 ML OF METHANOL 2/WK FOR 16 WK BEGINNING 1 WK POST CARCINOGEN DOSE THEN 5 UG 2/WK FOR 13 WK (STUDY DURATIO, Route [Carcinogen]: DERMAL, Route [Promoter]: DERMAL, Species: MOUSE, Strain/Sex: CD-1/FEMALE) read?
Answer: skin: tumor
